We go through 37 compounds from patent US11168102B1, “Bicyclic heteroaryl compounds and uses thereof” (Revolution Medicines, Inc., priority 2019, dated 2021).

As a reminder, the IC50 is the concentration needed to halve the response being measured.

Structures are written as SMILES.

One test relates to cellular pERK in PC-9 cells (EGFR Ex19Del). Briefly: Potency assay: pERK (AlphaLISA SureFire Ultra p-ERK1/2) in PC-9 cells. Format: cell-based. To be noted: Homo sapiens, PC-9, 1 h, PC-9 cells (EGFR Ex19Del), 1 hour incubation, AlphaLISA SureFire Ultra p-ERK1/2; read-out: SOS1 pERK IC50. (In general: In Alpha technology, singlet oxygen from a donor bead excites a nearby acceptor bead.)
Regarding `C[C@@H](Nc1ncnc2c1cc(C1=CCS(=O)(=NC#N)CC1)c(=O)n2C)c1cccc(C(F)F)c1F` (single isomer, unassigned) [Example 45], the IC50 came out at 29.1 nM. The same measure, in the same setting: under `COC1(c2cc3c(N[C@H](C)c4cccc(C(F)F)c4F)ncnc3n(C)c2=O)CCS(=N)(=O)CC1` (single isomer, unassigned) [Example 49] stands 75.5 nM; under `CN=S1(=O)CCC(F)(c2cc3c(N[C@H](C)c4cccc(C(F)F)c4F)ncnc3n(C)c2=O)CC1` (single isomer, unassigned) [Example 51], 41.1 nM. Regarding `COC1(c2cc3c(N[C@H](C)c4cccc(C(F)F)c4F)ncnc3n(C)c2=O)CC(N(C)C(C)=O)C1` (stereo in doubt) [Example 32-40], the IC50 worked out at 382 nM. The same measure, in the same setting: for `C[C@@H](Nc1ncnc2c1cc(C1=CCCNC1)c(=O)n2C)c1cccc(C(F)F)c1F` [Example 1-4] the value was 43.1 nM. For `C[C@@H](Nc1ncnc2c1cc(C1=CCCOC1)c(=O)n2C)c1cccc(C(F)F)c1F` [Example 1-6], the IC50 is 180 nM. With `CC(=O)N1CC=C(c2cc3c(N[C@H](C)c4cccc(C(F)F)c4F)ncnc3n(C)c2=O)CC1` [Example 1-16], the IC50 was 119 nM. On the same count and under the same terms, for `CC(=O)N1CC=C(c2cc3c(N[C@H](C)c4cccc(C(C)(F)F)c4F)ncnc3n(C)c2=O)CC1` [Example 1-20] the value was 78.5 nM; for `C[C@@H](Nc1ncnc2c1cc(C1=CCN(C3COC3)CC1)c(=O)n2C)c1cccc(C(F)F)c1F` [Example 1-22], 416 nM. Consider `CC(=O)N1CC=C(c2cc3c(N[C@H](C)c4cccc(C(F)(F)F)c4F)ncnc3n(C)c2=O)CC1` [Example 1-24], for which the IC50 came to 106 nM. Turning to `C[C@@H](Nc1ncnc2c1cc(C1=CCN(CC(F)(F)F)CC1)c(=O)n2C)c1cccc(C(F)F)c1F` [Example 1-27], the IC50 amounted to 313 nM.

For `C[C@@H](Nc1ncnc2c1cc(C1CCNCC1)c(=O)n2C)c1cccc(C(F)F)c1F` [Example 1-28], the IC50 came out at 125 nM. As for `Cc1nc(N[C@H](C)c2cccc(C(F)F)c2F)c2cc(C3CCNCC3)c(=O)n(C)c2n1` [Example 1-31], the IC50 turned out to be 568 nM.

For the compound `C[C@@H](Nc1ncnc2c1cc(C1=CC[P@](C)(=O)CC1)c(=O)n2C)c1cccc(C(F)F)c1F` [Example 1-32], the IC50 worked out at 93.1 nM. Consider `C[C@@H](Nc1ncnc2c1cc(C1=CC[P@@](C)(=O)CC1)c(=O)n2C)c1cccc(C(F)F)c1F` [Example 1-33], for which the 50% inhibitory concentration (IC50) stood at 201 nM. For the compound `C[C@@H](Nc1ncnc2c1cc(N1CCOCC1)c(=O)n2C)c1cccc(C(F)(F)CO)c1` [Example 2, (R)-4-((1-(3-(1,1-difluoro-2-hydroxyethyl)phenyl)ethyl)amino)-8-methyl-6-morpholinopyrido[2,3-d]pyrimidin-7(8H)-one], the 50% inhibitory concentration (IC50) is 59.8 nM. Turning to `Cc1nc(N[C@H](C)c2cccc(C(F)F)c2F)c2cc(N3CCOCC3)c(=O)n(C)c2n1` [Example 2-1], the IC50 was determined as 112 nM. Regarding `Cc1nc(N[C@H](C)c2cccc(C(F)(F)CO)c2)c2cc(C3=CCOCC3)c(=O)n(C)c2n1` [Example 3, (R)-4-((1-(3-(1,1-difluoro-2-hydroxyethyl)phenyl)ethyl)amino)-6-(3,6-dihydro-2H-pyran-4-yl)-2,8-dimethylpyrido[2,3-d]pyrimidin-7(8H)-one], the IC50 worked out at 79.4 nM. `Cc1nc(N[C@H](C)c2cccc(C(F)(F)CO)c2)c2cc(C3=CCNCC3)c(=O)n(C)c2n1` [Example 4, (R)-4-((1-(3-(1,1-difluoro-2-hydroxyethyl)phenyl)ethyl)amino)-2,8-dimethyl-6-(1,2,3,6-tetrahydropyridin-4-yl)pyrido[2,3-d]pyrimidin-7(8H)-one]: the IC50 is 481 nM.

Staying with this test, now noted: PC-9 cells (EGFR Ex19Del), 1 hour incubation, AlphaLISA SureFire Ultra p-ERK1/2; read-out: SOS1 pERK IC50.
As for `C[C@@H](Nc1ncnc2c1cc(C1=CCS(=O)(=NC#N)CC1)c(=O)n2C)c1cccc(C(F)F)c1F` (single isomer, unassigned) [Example 46], the IC50 was found to be 43.3 nM. As to `COC1(c2cc3c(N[C@H](C)c4cccc(C(F)F)c4F)ncnc3n(C)c2=O)CCS(=N)(=O)CC1` (single isomer, unassigned) [Example 50], the IC50 came to 112 nM. `CC(=O)N1CCC2(c3cc4c(N[C@H](C)c5cccc(C(F)F)c5F)ncnc4n(C)c3=O)CC2C1` (single isomer, unassigned) [Example 54-1]: the IC50 worked out at 53.7 nM.

As to `C[C@@H](Nc1ncnc2c1cc(C13CCOCC1C3)c(=O)n2C)c1cccc(C(F)F)c1F` (single isomer, unassigned) [Example 54-2], the IC50 was determined as 82.8 nM. Turning to `C[C@@H](Nc1ncnc2c1cc(C13CCOCC1C3)c(=O)n2C)c1cccc(C(F)F)c1F` (single isomer, unassigned) [Example 54-3], the IC50 worked out at 376 nM. Take `CC(=O)N1CCC2(c3cc4c(N[C@H](C)c5cccc(C(F)F)c5F)ncnc4n(C)c3=O)CC2C1` (single isomer, unassigned) [Example 54-4]: the IC50 was found to be 301 nM. On to `C[C@@H](Nc1ncnc2c1cc(C1(F)CCC3(CC1)CS(=O)(=NC1CC1)C3)c(=O)n2C)c1cccc(C(F)F)c1F` (single isomer, unassigned) [Example 56-1], for which the IC50 turned out to be 121 nM. As to `C[C@@H](Nc1ncnc2c1cc(C1(F)CCC3(CC1)CS(=O)(=NC1CC1)C3)c(=O)n2C)c1cccc(C(F)F)c1F` (single isomer, unassigned) [Example 56-2], the IC50 amounted to 294 nM. In the case of `C[C@@H](Nc1ncnc2c1cc(C1(F)CCC3(CC1)CS(=O)(=NC1CC1)C3)c(=O)n2C)c1cccc(C(F)F)c1F` (single isomer, unassigned) [Example 56-3], the IC50 came out at 86.2 nM.

For the compound `C[C@@H](Nc1ncnc2c1cc(C1(C#N)CCC3(CC1)CS(=O)(=NC1CC1)C3)c(=O)n2C)c1cccc(C(F)F)c1F` (single isomer, unassigned) [Example 58-1], the IC50 amounted to 386 nM. Same read-out and setting: for `C[C@@H](Nc1ncnc2c1cc(C1(C#N)CCC3(CC1)CS(=O)(=NC1CC1)C3)c(=O)n2C)c1cccc(C(F)F)c1F` (single isomer, unassigned) [Example 58-2] the value was 56.2 nM; for `C[C@@H](Nc1ncnc2c1cc(C1(C#N)CCS(=O)(=NC3CC3)CC1)c(=O)n2C)c1cccc(C(F)F)c1F` (single isomer, unassigned) [Example 58], 271 nM; for `C[C@@H](Nc1ncnc2c1cc(C1CCS(=O)(=NC3CC3)CC1)c(=O)n2C)c1cccc(C(F)F)c1F` (single isomer, unassigned) [Example 64-1], 26.3 nM. Take `C[C@@H](Nc1ncnc2c1cc(C1CCS(=O)(=NC3CC3)CC1)c(=O)n2C)c1cccc(C(F)F)c1F` (single isomer, unassigned) [Example 64-2]: the IC50 was 494 nM.

For the compound `CN=S1(=O)CCC(c2cc3c(N[C@H](C)c4cccc(C(F)F)c4F)ncnc3n(C)c2=O)CC1` (single isomer, unassigned) [Example 64-3], the IC50 came to 58.3 nM. Still for that read-out and setting: for `CN=S1(=O)CCC(c2cc3c(N[C@H](C)c4cccc(C(F)F)c4F)ncnc3n(C)c2=O)CC1` (single isomer, unassigned) [Example 64] the value was 131 nM; for `COC1(c2cc3c(N[C@H](C)c4cccc(C(F)F)c4F)ncnc3n(C)c2=O)CCS(=O)(=NC2CC2)CC1` (single isomer, unassigned) [Example 68], 201 nM.

For the compound `COC1(c2cc3c(N[C@H](C)c4cccc(C(F)F)c4F)ncnc3n(C)c2=O)CCS(=O)(=NC2CC2)CC1` (single isomer, unassigned) [Example 69], the IC50 worked out at 94 nM.
